One series concerns the target T1, OR52E8 (Homo sapiens, UniProt Q6IFG1).
T1 construct: Improved functional expression of modified OR-genes containing the truncated, optimized C-terminus; expressed in transfected cells; host or cells: HEK293T stably expressing human RTP1S(V227I) and RTP2(L220R)
In kind it is cell-based. From the text:
Activation of OR52E8 by odorant acids present in human sweat (Natsch et al. A specific bacterial aminoacylase cleaves odorant precursors secreted in the human axilla. The Journal of biological chemistry 2003; 278(8):5718-5727) was investigated with different variants of the parent receptor sequence. The wild-type variant was not activated by the acids. […] However, using the optimized sequence from Examples 1-5 led to a strong signal upon addition of 3-methyl-3-hydroxy hexanoic acid.
These two improvements were further combined and the combination was tested on OR52A5 and two further class I receptors. […] In the case of OR52A4, 4-ethyloctanoic acid, which is detected at low concentrations by the human nose, is detected with a high luciferase response already at 0.19 μM by the receptor with the C-terminal modification showing very sensitive detection of this carboxylic acid by the modified class I receptor.

The target of series [1] is T2, OR7C1 (Homo sapiens, UniProt O76099, D296E/G302K/M297V/R299D/T295K/V126I).
T2 construct: Improved functional expression of modified OR-genes containing the truncated, optimized C-terminus; expressed in transfected cells; host or cells: HEK293T stably expressing human RTP1S(V227I) and RTP2(L220R)
T2 sequence (O76099 with tags, fused parts or gaps V126I/T295K/D296E/M297V/R299D/G302K): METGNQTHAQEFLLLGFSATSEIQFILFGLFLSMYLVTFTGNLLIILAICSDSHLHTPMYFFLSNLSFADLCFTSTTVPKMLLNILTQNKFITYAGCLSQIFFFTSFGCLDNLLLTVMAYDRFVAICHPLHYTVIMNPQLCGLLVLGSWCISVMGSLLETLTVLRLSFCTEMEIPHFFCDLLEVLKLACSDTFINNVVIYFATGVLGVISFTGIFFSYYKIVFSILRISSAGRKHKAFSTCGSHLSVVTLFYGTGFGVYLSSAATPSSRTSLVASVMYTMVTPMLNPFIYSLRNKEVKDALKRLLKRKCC
The experiment in a line: CRE-luciferase assay, HEK293T cells expressing OR7C1 (wild-type / modified C-terminus). In kind it is cell-based. The text has this: To test for possible variants of the sequence […]CC (SEQ ID NO: 86) leading to similar improved functional expression, different point mutations were introduced into the first 16 amino acids of this sequence (corresponding to […], SEQ ID NO: 10) and the variants were fused after the TM7 with OR7C1. […] The test concentrations were selected to fall into the range of partial activity of the wild-type sequence.

The target in series [2] is T2, OR7C1. The description is as above. The format is cell-based. The source holds these as a separate data set.
The next series deals with OR7A17 and OR7C1. The experiment in a line: Cells expressing one or both of OR7A17 and OR7C1 (C-terminal domain SEQ ID NO: 221), luciferase. In kind it is cell-based, human. The text has this:
In order to screen for a specific odor description, some or all members of a given set of OR which was identified to be specific for a given odor description as shown in example 25 can be combined in a screening for new odorants or new odorant mixtures. The screening on the different OR can be performed sequentially or in parallel assays with the individual OR of the OR set. Additionally, some or all of the OR of the OR set specific for the odor-description can also be co-expressed in a single cell line. Thus, to screen for woody-ambery molecules, cells were either separately or simultaneously transfected with two plasmids coding for the optimized OR7A17 and OR7C1 both with the C-terminal domain of SEQ ID NO: 221. […] Cells expressing both receptors become functional sensors for the Ambery-woody odor description and detect both ligands down to low concentrations.

For a further series, the target named is T3, OR1C1 (Homo sapiens, UniProt Q15619).
T3 construct: Improved functional expression of modified OR-genes containing the truncated, optimized C-terminus; expressed in transfected cells; host or cells: HEK293T stably expressing human RTP1S(V227I) and RTP2(L220R)
The format is cell-based. The conditions noted are these: changed C-term. vs wild-type.

The test system of series [3] is library of all human class II OR. The series can be described thus: Screening of the library of all class II OR (n=408, C-terminal domain SEQ ID NO: 221) with single odorants, luciferase induction. In kind it is cell-based. Here is the method: All human class II OR and all key genetic variants of these OR were synthesized with a sequence coding for an identical modified C-terminal domain […] (SEQ ID NO: 221) in the vector pcDNA3.1(+) to generate a library of all class II OR with an improved C-terminal domain.
Parallel transfection experiments were conducted with all these plasmids (n=408) and cells expressing the different OR were stimulated with one given ligand at a time, tested at the maximal, clearly non-cytotoxic concentration. In total 26 different ligands were tested on the full library of class II receptors.

Another series addresses T4, OR5AN1 (Homo sapiens, UniProt Q8NGI8).
T4 construct: Lucy part is a cleavable signal peptide) (N); expressed in transfected cells
The series can be described thus: Luciferase assay with chimeric OR5AN1 carrying the C-terminal sequence of OR1N2. The format is cell-based. The text has this:
Similarly, the C-terminal sequence of OR5AN1 was replaced with the C-terminal sequence of the ambrettolide receptor OR1N2.

The target in the next series is T5, OR5A2 (Homo sapiens, UniProt Q8NGI9).
T5 construct: Improved functional expression of modified OR-genes containing the truncated, optimized C-terminus; expressed in transfected cells; host or cells: HEK293T with stably integrated human RTP1S(V227I) and RTP2(L220R)
T5 sequence (Q8NGI9 with tags, fused parts or gaps): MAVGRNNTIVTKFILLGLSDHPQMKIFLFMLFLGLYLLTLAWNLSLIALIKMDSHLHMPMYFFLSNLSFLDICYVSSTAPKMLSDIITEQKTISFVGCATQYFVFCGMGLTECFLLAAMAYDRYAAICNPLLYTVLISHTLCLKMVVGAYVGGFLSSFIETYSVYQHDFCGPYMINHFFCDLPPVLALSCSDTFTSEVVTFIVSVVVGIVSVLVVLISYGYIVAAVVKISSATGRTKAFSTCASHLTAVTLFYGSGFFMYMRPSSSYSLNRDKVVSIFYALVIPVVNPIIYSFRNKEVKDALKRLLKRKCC
The experiment in a line: CRE-luciferase assay, HEK293T cells expressing OR5A2 (wild-type / modified C-terminus). The format is cell-based.

Series [4] addresses T6, OR10J5 (Homo sapiens, UniProt Q8NHC4).
T6 construct: Improved functional expression of modified OR-genes containing the truncated, optimized C-terminus; expressed in transfected cells; host or cells: HEK293T stably expressing human RTP1S(V227I) and RTP2(L220R)
T6 sequence (Q8NHC4 with tags, fused parts or gaps): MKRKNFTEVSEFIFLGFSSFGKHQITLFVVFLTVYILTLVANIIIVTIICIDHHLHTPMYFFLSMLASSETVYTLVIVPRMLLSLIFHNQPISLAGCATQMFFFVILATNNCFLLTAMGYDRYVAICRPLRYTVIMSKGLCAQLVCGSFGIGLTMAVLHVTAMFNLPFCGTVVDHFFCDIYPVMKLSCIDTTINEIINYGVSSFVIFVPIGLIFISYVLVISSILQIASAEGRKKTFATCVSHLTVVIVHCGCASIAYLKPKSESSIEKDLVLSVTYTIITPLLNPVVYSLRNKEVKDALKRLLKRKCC
The format is cell-based. Here is the method: Activation of OR10J5 with the C-terminal domain of SEQ ID NO: 86 by (S,E)-10-hydroxy-4,8-dimethyldec-4-enal or (R,E)-10-hydroxy-4,8-dimethyldec-4-enal was measured in a dose-response analysis.
Potency of the two tested OR10J5 ligands is expressed as the EC20% value, which is the concentration that leads to a 20% increase of the luciferase activity relative to the positive control (100 μM, Mahonial; (4E)-9-hydroxy-5,9-dimethyl-4-Decenal). […] Because of the difference in EC20%, a much lower concentration of the (S,E)-isomer is needed to activate the receptor compared to the concentration needed of the (R,E)-isomer. […] This example further illustrates the usefulness of the improved assay to determine the most odor-active isomers.

Series [5] deals with T6, OR10J5. In kind it is cell-based. To be noted: changed C-term. vs wild-type.
Series [6] deals with human class II OR identified in the library screening. The series can be described thus: Confirmatory dose-response analysis of library-hit OR with cognate ligand, wild-type vs C-terminal domain SEQ ID NO: 221 (Table 17).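 Also: Wild-type receptor sequences expressed from the pcDNA3.1(+) vector and compared with the C-terminally modified receptors in dose-response tests using each receptor's cognate ligand.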
Method: Selected ligand—OR pairs were then tested in a confirmatory test with a dose response analysis.
For selected receptors, the wild-type sequence was synthesized and cloned into pcDNA3.1 (+). Dose-response analysis with the cognate ligand was then performed for both the wild-type and the modified sequence.
Series [7] deals with library of human class II OR. The series can be described thus: Screening of the class II OR library with a mixture of odorants of one odor description. To be noted: OR with C-terminal domain SEQ ID NO: 221. In kind it is cell-based. From the text:
Single odorants may trigger activation of multiple OR as shown by the case of Ambrofix in example 18, which activates the specific receptors OR7E24 and OR7A17. On the other hand, multiple odorants may be perceived as and described by certain common odor descriptors due to their common activation of a given set of OR. To trigger a specific odor sensation, thus a specific set of OR may need to be activated. This specific OR set can be identified by mixing several odorants with a given odor description. The mixture is then screened on the full library of OR. The identified set of OR can then be further used to screen for that particular odor description. For example, to identify a typical set of OR for the odor description of “fruity esters”, a mixture of the following compounds was made: Pentanoic acid, 2-methyl ethyl ester; Butanoic acid, 3-methyl-, ethyl ester; Acetic acid, phenoxy-, 2-propenyl ester; Hexanoic acid, ethyl ester; Acetic acid, (3-methylbutoxy)-, 2-propenyl ester; Acetic acid, (cyclohexyloxy)-, 2-propenyl ester; Butanoic acid, 2-methyl-, (3Z/E)-3-hexenyl ester; Cyclohexanecarboxylic acid, ethyl ester and Oxiranecarboxylic acid, 3-phenyl, ethyl ester. This mixture was screened against the full library of OR as described in example 18. […]

“Also recorded” adds a separate entry of the source.

T1 sequence (Q6IFG1 with tags, fused parts or gaps): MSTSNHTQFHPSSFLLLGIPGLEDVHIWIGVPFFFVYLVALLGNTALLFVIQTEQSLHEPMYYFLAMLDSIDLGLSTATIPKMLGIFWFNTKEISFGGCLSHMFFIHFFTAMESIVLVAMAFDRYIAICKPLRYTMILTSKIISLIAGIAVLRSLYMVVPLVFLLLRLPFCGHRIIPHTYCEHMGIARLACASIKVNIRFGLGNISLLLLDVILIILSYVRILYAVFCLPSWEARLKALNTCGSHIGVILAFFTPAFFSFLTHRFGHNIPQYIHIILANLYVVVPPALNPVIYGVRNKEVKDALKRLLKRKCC
T3 sequence (Q15619 with tags, fused parts or gaps): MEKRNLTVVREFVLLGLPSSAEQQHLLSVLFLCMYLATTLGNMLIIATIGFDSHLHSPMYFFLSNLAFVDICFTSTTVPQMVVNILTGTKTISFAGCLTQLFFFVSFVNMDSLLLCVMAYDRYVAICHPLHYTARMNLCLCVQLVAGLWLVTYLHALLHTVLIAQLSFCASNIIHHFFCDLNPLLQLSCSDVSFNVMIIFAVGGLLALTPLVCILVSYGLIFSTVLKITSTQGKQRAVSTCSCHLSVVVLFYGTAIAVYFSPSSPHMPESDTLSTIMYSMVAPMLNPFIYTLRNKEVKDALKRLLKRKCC
T4 sequence (Q8NGI8 with tags, fused parts or gaps limits assumed): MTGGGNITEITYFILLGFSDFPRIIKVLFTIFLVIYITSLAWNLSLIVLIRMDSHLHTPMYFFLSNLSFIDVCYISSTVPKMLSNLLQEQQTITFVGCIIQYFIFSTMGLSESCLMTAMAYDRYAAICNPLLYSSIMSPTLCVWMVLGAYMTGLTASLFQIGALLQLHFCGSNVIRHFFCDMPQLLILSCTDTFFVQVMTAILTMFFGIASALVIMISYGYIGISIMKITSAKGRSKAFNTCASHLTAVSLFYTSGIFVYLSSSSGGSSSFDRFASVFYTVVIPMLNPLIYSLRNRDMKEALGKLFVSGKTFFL

As for `CCCC(C)(O)CC(=O)O` (stereo not shown) [3-Methyl-3-Hydroxy-Hexanoic acid, 3-Methyl-3-hydroxyhexanoic acid], the Comments on efficacy entry on OR52E8 is recorded as “No induction”. At OR52E8 (changed C-term. vs wild-type), the Fold-improvement potency is >>5 and the Fold-improvement threshold was >>5.
For `CC(CO)C1=C2C(C)(C)C3CCC2(C3)C(C)(C)CC1` (stereo not shown) [Ambermax], the Comments on efficacy on OR7C1 [1] is on record as 3.5-fold lower. Moreover, the “Detection threshold; concentration for 2-fold induction” value at OR7C1 [2] (changed C-term. SEQ ID NO: 86) is 0.17 µM; at OR7C1 [2] (wild-type), 2.76 µM. The same molecule gave a Fold-improvement potency at OR7C1 [2] (changed C-term. vs wild-type) of 2.7. In the series with OR7A17 and OR7C1, the “ligand specificity in cells expressing OR7A17 and/or OR7C1” value is recorded as “specific ligand for OR7C1”.
On OR1C1, `C=CC(C)(O)CCC=C(C)C` (stereo not shown) [Linalool] displayed a Fold-improvement potency of 1.9 and a Fold-improvement threshold of 2.1.
In the case of `C[C@@H]1CCCCCCCCCCCCC(=O)C1` [Muscone, reference compound], the “Activated OR and OR variants” value in series [3] (ligand at maximal non-cytotoxic concentration, full class II library) was “OR5AN1, OR5A2”. The “functional response of chimeric OR5AN1” value on OR5AN1 was “not showing any functional response”. Moreover, on OR5A2 (OR5A2 with modified C-terminus), the “concentration at which induction starts” value came to 0.03 µM. For the same molecule, at OR5A2 (modified OR5A2, SEQ ID NO: 86), the “concentration at which activation occurs” value turned out to be 1 µM.
Turning to `CC(=O)c1c(C)c([N+](=O)[O-])c(C(C)(C)C)c([N+](=O)[O-])c1C` [Musk ketone], at OR5AN1, the “functional response of chimeric OR5AN1” value was “not showing any functional response”.
For `Cc1cc(CC(C)C)ccc1CCC=O` [Nympheal, 3-(4-isobutyl-2-methylphenyl)propanal], the Comments on efficacy entry on OR10J5 [4] was “Only 1.8-fold”. At OR10J5 [5], the Fold-improvement potency was >>6 and the Fold-improvement threshold is listed as >>6.
Turning to `C[C@H]1CC[C@@]2(O)C(C)(C)[C@@H]3CC[C@@]2(C)[C@H]1C3` [Patchoulol], in [6] (OR14J1, modified C-terminus SEQ ID NO: 221 (SEQ ID NO: 738)), the “Detection threshold; concentration for 2-fold induction, changed C-term.” value amounted to 0.45 µM. The Fold improvement efficacy in series [6] (OR14J1, modified C-terminus SEQ ID NO: 221 vs wild-type, maximal induction) is on record as 33.4 fold. Besides, the EC50 in [6] (read-out: Potency, EC50 changed C-term, OR14J1, modified C-terminus SEQ ID NO: 221 (SEQ ID NO: 738)) is 2200 nM. The “activity of the wild-type OR” value in series [6] (wild-type sequence, cognate ligand) was “inactive”. Moreover, the “induction in the library screening” value in series [3] (50 μM Patchoulol) is “strong induction of OR14J1; also recorded: weak induction of OR11A1 and OR7A17”.

B1: OR2L5: class II OR with C-terminal domain SEQ ID NO: 221 (protein, UniProt Q8NG80 1-312, looked up)
Olfactory receptor 2L5: MENYNQTSTDFILLGLFPPSKIGLFLFILFVLIFLMALIGNLSMILLIFLDTHLHTPMYFLLSQLSLIDLNYISTIVPKMASDFLYGNKSISFIGCGIQSFFFMTFAGAEALLLTSMAYDRYVAICFPLHYPIRMSKRMYVLMITGSWMIGSINSCAHTVYAFRIPYCKSRAINHFFCDVPAMLTLACTDTWVYEYTVFLSSTIFLVFPFTGIACSYGWVLLAVYRMHSAEGRKKAYSTCSTHLTVVTFYYAPFAYTYLCPRSLRSLTEDKVLAVFYTILTPMLNPIIYSLRNKEVMGALTRVIQNIFSVKM
With B1, in series [7], the “Fold luciferase induction (20 ppm fruity ester mix)” value was 8.9.

B2: OR11G2: class II OR with C-terminal domain SEQ ID NO: 221 (protein, UniProt Q8NGC1 1-345, looked up)
Olfactory receptor 11G2: MHFLSQNDLNINLIPHLCLHRHSVIAGAFTIHRHMKIFNSPSNSSTFTGFILLGFPCPREGQILLFVLFTVVYLLTLMGNGSIICAVHWDQRLHAPMYILLANFSFLEICYVTSTVPSMLANFLSDTKIISFSGCFLQFYFFFSLGSTECFFLAVMAFDRYLAICRPLRYPTIMTRRLCTNLVVNCWVLGFIWFLIPIVNISQMSFCGSRIIDHFLCDPAPLLTLTCKKGPVIELVFSVLSPLPVFMLFLFIVGSYALVVRAVLRVPSAAGRRKAFSTCGSHLAVVSLFYGSVLVMYGSPPSKNEAGKQKTVTLFYSVVTPLLNPVIYSLRNKDMRKALKKFWGT
With B2, in series [7], the “Fold luciferase induction (20 ppm fruity ester mix)” value was found to be 7.2.

The record behind these values is patent US20260210939A1, “MODIFIED OLFACTORY RECEPTORS” (GIVAUDAN SA, priority 2022, published 2026).
